For this assay, the system named is BDF1 mice, P388 leukemia ip, median survival T/C. The experiment in a line: NCI In Vivo Anticancer Drug Screen. Data for tumor model P388 Leukemia (intraperitoneal) in B6D2F1 (BDF1) mice. The settings on record: endpoint: median survival time, higher = longer survival. The protocol:
The antitumor activity of compounds was measured in mice bearing transplantable tumors. Survival or tumor size were measured and the results are expressed as the measurement made in the treated group (T) divided by the measurement made in the vehicle treated control group (C). The tumor model used in this assay is P388 Leukemia (intraperitoneal) in B6D2F1 (BDF1) mice

[1] abbreviates: dose: 100.0 mg/kg/injection, schedule: Q04DX003 (ip), vehicle: other.
The mark [2] stands for this setting: dose: 100.0 mg/kg/injection, schedule: Q04DX003 (ip), vehicle: saline with Tween-80.
Where [3] appears, read: dose: 200.0 mg/kg/injection, schedule: Q04DX003 (ip), vehicle: Klucel (hydroxypropylcellulose) (HPC).
Setting [4] is: dose: 200.0 mg/kg/injection, schedule: Q04DX003 (ip), vehicle: other.
The mark [5] stands for this setting: dose: 200.0 mg/kg/injection, schedule: Q04DX003 (ip), vehicle: saline with Tween-80.
Where [6] appears, read: dose: 100.0 mg/kg/injection, schedule: Q01DX009 (ip), vehicle: saline with Tween-80.
Setting [7] is: dose: 200.0 mg/kg/injection, schedule: Q01DX009 (ip), vehicle: saline with Tween-80.
Setting [8] is: dose: 25.0 mg/kg/injection, schedule: Q01DX001 (ip), vehicle: Klucel (hydroxypropylcellulose) (HPC).
[9] abbreviates: dose: 50.0 mg/kg/injection, schedule: Q01DX009 (ip), vehicle: saline with Tween-80.
Setting [10] is: dose: 100.0 mg/kg/injection, schedule: Q01DX009 (ip), vehicle: Klucel (hydroxypropylcellulose) (HPC).
[11] abbreviates: dose: 200.0 mg/kg/injection, schedule: Q01DX009 (ip), vehicle: Klucel (hydroxypropylcellulose) (HPC).
Setting [12] is: dose: 400.0 mg/kg/injection, schedule: Q01DX009 (ip), vehicle: Klucel (hydroxypropylcellulose) (HPC).
Where [13] appears, read: dose: 400.0 mg/kg/injection, schedule: Q04DX003 (ip), vehicle: Klucel (hydroxypropylcellulose) (HPC).

Structures are written as SMILES. Where “and” joins values, the source holds several entries; their conditions need not be identical. Equal values may be shown once. Inconclusive results and toxic doses are left out.

On to `CCCCc1ccc2nc(NC(=O)OC)[nH]c2c1`, for which the T/C is 174 % of control under setting [1]; 169 % of control under setting [2]; 160 % of control under setting [3]; 93 % of control under setting [4]; 96 % of control under setting [5].

Turning to `COc1ccc2nc(N)n(C(=O)c3ccccc3)c(=O)c2c1`, the T/C reads like this: (dose: 100.0 mg/kg/injection, schedule: Q01DX001 (ip), vehicle: saline with Tween-80) 101 % of control; (dose: 200.0 mg/kg/injection, schedule: Q01DX001 (ip), vehicle: saline with Tween-80) 109 % of control; (dose: 400.0 mg/kg/injection, schedule: Q01DX001 (ip), vehicle: saline with Tween-80) 109 % of control.

With `CCOC(=O)C(Cc1ccccc1Cl)(Cc1ccccc1Cl)c1ccccc1`, the T/C under setting [6] is 106 % of control and the T/C under setting [7] is 100 % of control.

`CCOC(=O)CCCC1(C)C(C#N)C(=O)NC(=O)C1C#N` (stereo not given): the T/C is 104 % of control (dose: 100.0 mg/kg/injection, schedule: Q04DX003 (ip), vehicle: saline); 100 % of control (dose: 200.0 mg/kg/injection, schedule: Q04DX003 (ip), vehicle: saline); 118 % of control (dose: 400.0 mg/kg/injection, schedule: Q04DX003 (ip), vehicle: saline).

With `CC1(C)COP(OCC(F)(F)F)OC1`, the T/C was 92 % of control (dose: 25.0 mg/kg/injection, schedule: Q01DX005 (ip), vehicle: saline with Tween-80); 94 % of control (dose: 50.0 mg/kg/injection, schedule: Q01DX005 (ip), vehicle: saline with Tween-80); 94 % of control (dose: 100.0 mg/kg/injection, schedule: Q01DX005 (ip), vehicle: saline with Tween-80).

Consider `O=C(c1ccccc1)C1C(c2ccccc2)C2(CCCCC2=O)C(c2ccccc2)CC1(O)c1ccccc1` (stereo not given), for which the T/C under setting [8] is 88 % of control.

In the case of `O=C(NC(CO)Cc1ccccc1)c1ccccc1` (stereo not given), the T/C was 102 % of control (dose: 9.0 mg/kg/injection, schedule: Q01DX009 (ip), vehicle: Klucel (hydroxypropylcellulose) (HPC)); 95 % of control (dose: 18.0 mg/kg/injection, schedule: Q01DX009 (ip), vehicle: Klucel (hydroxypropylcellulose) (HPC)); 99 % of control (dose: 36.0 mg/kg/injection, schedule: Q01DX009 (ip), vehicle: Klucel (hydroxypropylcellulose) (HPC)); 99 % of control (dose: 72.0 mg/kg/injection, schedule: Q01DX009 (ip), vehicle: Klucel (hydroxypropylcellulose) (HPC)).

`CCCCCCCC(=O)N/N=C(\CO)[C@]1(O)Cc2c(O)c3c(c(O)c2[C@@H](OC2CC(N)C(O)C(C)O2)C1)C(=O)c1c(OC)cccc1C3=O` (stereo not given in full): the T/C (dose: 0.78 mg/kg/injection, schedule: Q01DX009 (ip), vehicle: water) is 114 % of control; the T/C (dose: 1.56 mg/kg/injection, schedule: Q01DX009 (ip), vehicle: water) was 183 % of control; the T/C (dose: 3.12 mg/kg/injection, schedule: Q01DX009 (ip), vehicle: water) is 106 % of control and 222 % of control; the T/C (dose: 6.25 mg/kg/injection, schedule: Q01DX009 (ip), vehicle: water) was 163 % of control and 200 % of control; the T/C (dose: 12.5 mg/kg/injection, schedule: Q01DX009 (ip), vehicle: water) was 117 % of control and 204 % of control; the T/C (dose: 25.0 mg/kg/injection, schedule: Q01DX009 (ip), vehicle: water) is 104 % of control.

`CC(=O)OCC1OC(N)C(OC(C)=O)C(OC(C)=O)C1OC(C)=O` (stereo not given): the T/C was 97 % of control under setting [9], 92 % of control under setting [6] and 96 % of control under setting [7].

Turning to `CCCCCCCCSc1ncnc2nc[nH]c12`, the T/C runs as follows: under setting [6], 108 % of control; under setting [2], 100 % of control; under setting [7], 87 % of control; under setting [5], 100 % of control; (dose: 400.0 mg/kg/injection, schedule: Q01DX009 (ip), vehicle: saline with Tween-80) 108 % of control; (dose: 400.0 mg/kg/injection, schedule: Q04DX003 (ip), vehicle: saline with Tween-80) 100 % of control.

In the case of `O=C(Nc1cccc2cccnc12)C12CC3CC(CC(C3)C1)C2`, the T/C is, setting by setting: under setting [9], 96 % of control; under setting [6], 96 % of control; under setting [7], 100 % of control.

For the compound `C[C@]12CC[C@@H]3c4ccc(O)cc4CC[C@H]3[C@@H]1CC[C@@H]2OC(=O)CCC1CCCC1`, the T/C under setting [10] was 100 % of control; the T/C (dose: 100.0 mg/kg/injection, schedule: Q04DX003 (ip), vehicle: Klucel (hydroxypropylcellulose) (HPC)) was 104 % of control; the T/C under setting [11] is 95 % of control; the T/C under setting [3] was 104 % of control; the T/C under setting [12] is 104 % of control; the T/C under setting [13] was 104 % of control.

Take `COc1ccccc1Oc1ccc(N=Cc2ccc(C)cc2)cc1`: the T/C by setting is: (dose: 12.0 mg/kg/injection, schedule: Q01DX001 (ip), vehicle: Klucel (hydroxypropylcellulose) (HPC)) 100 % of control; under setting [8], 104 % of control; (dose: 50.0 mg/kg/injection, schedule: Q01DX001 (ip), vehicle: Klucel (hydroxypropylcellulose) (HPC)) 95 % of control; (dose: 100.0 mg/kg/injection, schedule: Q01DX001 (ip), vehicle: Klucel (hydroxypropylcellulose) (HPC)) 100 % of control.

Consider `CN(C)c1ccc(-c2nc3c(=O)n(C)c(=O)n(C)c3nc2-c2ccc(N(C)C)cc2)cc1`, for which the T/C reads like this: (dose: 100.0 mg/kg/injection, schedule: Q04DX002 (ip), vehicle: saline with Tween-80) 106 % of control; (dose: 200.0 mg/kg/injection, schedule: Q04DX002 (ip), vehicle: saline with Tween-80) 111 % of control; (dose: 400.0 mg/kg/injection, schedule: Q04DX002 (ip), vehicle: saline with Tween-80) 116 % of control.

Take `O=C(CCCCC(=O)Nc1ccc(C2=NCCN2)cc1)Nc1ccc(C2=NCCN2)cc1`: the T/C is 104 % of control (dose: 3.6 mg/kg/injection, schedule: Q01DX009 (ip), vehicle: Klucel (hydroxypropylcellulose) (HPC)); 100 % of control (dose: 5.4 mg/kg/injection, schedule: Q01DX009 (ip), vehicle: Klucel (hydroxypropylcellulose) (HPC)); 168 % of control (dose: 65.0 mg/kg/injection, schedule: Q01DX009 (ip), vehicle: Klucel (hydroxypropylcellulose) (HPC)); 190 % of control under setting [10]; 111 % of control under setting [1]; 204 % of control (dose: 132.0 mg/kg/injection, schedule: Q01DX009 (ip), vehicle: Klucel (hydroxypropylcellulose) (HPC)). The T/C reads like this: under setting [11], 225 % of control and 172 % of control and 209 % of control; under setting [4], 116 % of control; (dose: 264.0 mg/kg/injection, schedule: Q04DX003 (ip), vehicle: Klucel (hydroxypropylcellulose) (HPC)) 180 % of control; (dose: 300.0 mg/kg/injection, schedule: Q01DX009 (ip), vehicle: Klucel (hydroxypropylcellulose) (HPC)) 257 % of control and 213 % of control; under setting [12], 100 % of control; under setting [13], 225 % of control and 168 % of control. Also, the T/C (dose: 400.0 mg/kg/injection, schedule: Q04DX003 (ip), vehicle: other) is 161 % of control.

Values taken from PubChem BioAssay AID328 (DTP/NCI, 2004).
